Assay results published in patent US11420936B2, “Hypoxia inducible factor-2(alpha) inhibitors and their use in the treatment of diseases” (priority 2020, dated 2022).
Read-outs that look alike come from different tables or passages of the source.

Experiments:
HIF-2α = HIF-2α (Homo sapiens (Human), UniProt Q99814); assay: cell-based; format: cell-based
Experimental: The ability of the disclosed compounds to inhibit HIF-2α was measured by determining VEGF expression in 786-O cells. About 7500 786-O cells were seeded into each well of a 96-well, white, clear bottom plate (07-200-566, Fisher Scientific) with 200 ul growth medium. Four hours later, compounds were dispensed into wells by Tecan D300e digital dispenser with starting concentration of 10 uM and ½ log of dilution down to 1 nM as final concentration. Each concentration of treatment was performed in duplicate. About 20 hours later, medium was removed and fresh medium was added, followed by compounds treatment as described above. 24 hours later, cell culture medium was collected to determine VEGF concentration using an ELISA kit (R&D systems, cat #DVE00) following the manufacturer's instruction.
The EC50 is calculated by GraphPad Prism using the dose-response-inhibition (four parameter) equation. The plate with cells was then subjected to CellTiter-Glo luminescence cell viability assay (Promega) to determine the effect of these compounds on cell numbers after the above treatment.

HIF-2α/ARNT dimerization = HIF-2α/ARNT dimerization (Homo sapiens (Human), UniProt Q99814); assay: Co-immunoprecipitation assay for inhibition of HIF-2α and ARNT dimerization in PASMC and HPAEC; format: cell-based
Chain of HIF-2α/ARNT dimerization (Q99814 whole entry): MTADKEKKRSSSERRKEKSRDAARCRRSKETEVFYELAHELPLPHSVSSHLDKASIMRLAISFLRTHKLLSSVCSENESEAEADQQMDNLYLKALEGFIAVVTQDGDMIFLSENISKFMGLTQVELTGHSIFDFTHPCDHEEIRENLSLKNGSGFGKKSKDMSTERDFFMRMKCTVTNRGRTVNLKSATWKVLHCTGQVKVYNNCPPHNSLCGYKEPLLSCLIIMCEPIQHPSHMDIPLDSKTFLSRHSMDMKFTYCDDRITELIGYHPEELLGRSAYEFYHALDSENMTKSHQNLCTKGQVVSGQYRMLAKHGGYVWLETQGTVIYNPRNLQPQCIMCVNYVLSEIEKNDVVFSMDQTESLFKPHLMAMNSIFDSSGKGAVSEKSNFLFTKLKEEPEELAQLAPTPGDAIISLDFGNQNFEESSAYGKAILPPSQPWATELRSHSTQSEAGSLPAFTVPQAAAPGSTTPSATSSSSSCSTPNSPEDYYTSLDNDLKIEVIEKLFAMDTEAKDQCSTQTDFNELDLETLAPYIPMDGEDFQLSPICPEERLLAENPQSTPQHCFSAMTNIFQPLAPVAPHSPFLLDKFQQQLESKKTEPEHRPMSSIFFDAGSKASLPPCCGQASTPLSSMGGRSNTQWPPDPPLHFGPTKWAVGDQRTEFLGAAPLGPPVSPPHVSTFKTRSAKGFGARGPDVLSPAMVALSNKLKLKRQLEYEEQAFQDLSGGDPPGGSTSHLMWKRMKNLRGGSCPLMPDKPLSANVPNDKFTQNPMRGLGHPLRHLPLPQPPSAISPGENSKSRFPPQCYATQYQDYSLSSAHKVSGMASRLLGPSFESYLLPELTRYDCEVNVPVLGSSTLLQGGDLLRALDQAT
Experimental: FIG. 1 provides results of a co-immunoprecipitation assay for measuring inhibition of HIF-2α and ARNT dimerization in Primary Pulmonary Artery Smooth Muscle Cells (PASMC) and Human Pulmonary Artery Endothelial Cells (HPAEC).
Primary Pulmonary Artery Smooth Muscle Cells (PASMC, ATCC #PCS-100-023) were cultured in Vascular Cell Basal Medium (ATCC #PCS-100-030) supplemented with Vascular Smooth Muscle Cell Growth Kit (ATCC #PCS-100-042). Primary Pulmonary Artery Endothelial Cells (HPAEC, ATCC #PCS-100-022) were cultured in Vascular Cell Basal Medium (ATCC #PCS-100-030) supplemented with Endothelial Cell Growth Kit-BBE (ATCC #PCS-100-040). 0.5×10^6 cells were seeded into 6-well cell culture plates (Corning #3736) in 2 mL of media and cultured in a 37° C. cell culture incubator with atmospheric levels of oxygen and 5% CO2 overnight. The following day, cells were cultured in normoxia condition (atmospheric levels of oxygen and 5% CO2) or in hypoxia condition (1% O2 and 5% CO2) and treated with dimethyl sulfoxide (DMSO) or Compound 24a at 0.001, 0.01, 0.1, and 1 μM for 24 h.
After treatment, cells were washed with ice-cold PBS (containing compounds as in treatment step). […] Supernatant (cell lysate) was transferred to a new tube and protein concentration was measured by BCA protein assay. […]
Cell lysates were also analyzed by immunoblot (Western analysis). […]

[1] = inhibition of VEGF expression in 786-O cells, ELISA of culture medium, read-out: EC50

Chain of HIF-2α (Q99814 whole entry): as above

| SMILES | EC50 (HIF-2α; [1]) [nM] | other results |
| --- | --- | --- |
| N#Cc1cc(F)cc(Oc2ccc3c4c2C(F)CC4(N)C(F)(F)C3(F)F)c1 (stereo not shown) [Compound 14, 3-((2a-amino-1,3,3,4,4-pentafluoro-2,2a,3,4-tetrahydro-1H-cyclopenta[cd]inden-7-yl)oxy)-5-fluorobenzonitrile] | 630 |  |
| N#Cc1cc(F)cc(Oc2ccc3c4c2CC(F)(F)C4(O)CC3F)c1 (stereo not shown) [Compound 19, 3-fluoro-5-((1,3,3-trifluoro-2a-hydroxy-2,2a,3,4-tetrahydro-1H-cyclopenta[cd]inden-5-yl)oxy)benzonitrile] | 4100 |  |
| N#Cc1cc(F)cc(Oc2ccc3c4c2C(F)(F)CC4(F)C(F)(F)C3(F)F)c1 (stereo not shown) [Compound 15, 3-fluoro-5-((1,1,2a,3,3,4,4-heptafluoro-2,2a,3,4-tetrahydro-1H-cyclopenta[cd]inden-7-yl)oxy)benzonitrile] | > 5000 |  |
| C=C1C[C@@]2(O)c3c(ccc(Oc4cc(F)cc(C#N)c4)c31)C(F)(F)C2(F)F [Compound 23a, (R)-3-fluoro-5-((3,3,4,4-tetrafluoro-2a-hydroxy-1-methylene-2,2a,3,4-tetrahydro-1H-cyclopenta[cd]inden-7-yl)oxy)benzonitrile] | 7 |  |
| N#Cc1cc(F)cc(Oc2ccc3c4c2CCC4(O)C(F)(F)C3(F)F)c1 (stereo not shown) [Compound 13, 3-fluoro-5-((3,3,4,4-tetrafluoro-2a-hydroxy-2,2a,3,4-tetrahydro-1H-cyclopenta[cd]inden-7-yl)oxy)benzonitrile] | 330 |  |
| CC1(O)CC2(O)c3c(ccc(Oc4cc(F)cc(C#N)c4)c31)C(F)(F)C2(F)F (stereo not shown) [Compound 11, 3-fluoro-5-((3,3,4,4-tetrafluoro-1,2a-dihydroxy-1-methyl-2,2a,3,4-tetrahydro-1H-cyclopenta[cd]inden-7-yl)oxy)benzonitrile] | > 5000 |  |
| OC12CC(F)c3c(Oc4cncc(F)c4)ccc(c31)C(F)(F)C2(F)F (stereo not shown) [Compound 8, 1,3,3,4,4-pentafluoro-7-((5-fluoropyridin-3-yl)oxy)-1,2,3,4-tetrahydro-2aH-cyclopenta[cd]inden-2a-ol] | 320 |  |
| N#Cc1cc(F)cc(Oc2ccc3c4c2[C@@H](F)[C@@H](F)[C@]4(O)C(F)(F)C3(F)F)c1 [Compound 24a, 3-fluoro-5-(((1R,2S,2aS)-1,2,3,3,4,4-hexafluoro-2a-hydroxy-2,2a,3,4-tetrahydro-1H-cyclopenta[cd]inden-7-yl)oxy)benzonitrile] | 2 | Disruption of HIF-2α/ARNT dimerization at 0.01 μM (HIF-2α/ARNT dimerization; 0.01 μM, PASMC/HPAEC under hypoxia condition (1% O2)): efficiently disrupt the HIF-2α/ARNT dimerization; Disruption of HIF-2α/ARNT dimerization (HIF-2α protein co-precipitated with ARNT) (HIF-2α/ARNT dimerization; PASMC and HPAEC, 0.001, 0.01, 0.1 and 1 μM for 24 h, FIG. 1): reduced in the lysate of cells treated with Compound 24a in a dose-dependent manner |
| N#Cc1cc(F)cc(Oc2ccc3c4c2C2(CC2)CC4(O)C(F)(F)C3(F)F)c1 (stereo not shown) [Compound 9, 3-fluoro-5-((3,3,4,4-tetrafluoro-2a-hydroxy-2,2a,3,4-tetrahydrospiro[cyclopenta[cd]indene-1,1′-cyclopropan]-7-yl)oxy)benzonitrile] | 170 |  |
| N#Cc1cc(F)cc(Oc2ccc3c4c2[C@H](F)C[C@]4(O)C(F)(F)C3(F)F)c1 [Compound 7, 3-fluoro-5-(((1R,2aR)-1,3,3,4,4-pentafluoro-2a-hydroxy-2,2a,3,4-tetrahydro-1H-cyclopenta[cd]inden-7-yl)oxy)benzonitrile] | 2100 |  |
| N#Cc1cc(F)cc(Oc2ccc3c4c2C(F)CC4(O)C(F)(F)C3(F)F)c1 (stereo not shown) [Compound 4, 3-fluoro-5-((1,3,3,4,4-pentafluoro-2a-hydroxy-2,2a,3,4-tetrahydro-1H-cyclopenta[cd]inden-7-yl)oxy)benzonitrile] | 10 |  |
| [2H]C1([2H])[C@@]2(O)c3c(ccc(Oc4cc(F)cc(C#N)c4)c3[C@@]1([2H])F)C(F)(F)C2(F)F [Compound 21, 3-fluoro-5-(((1S,2aR)-1,3,3,4,4-pentafluoro-2a-hydroxy-2,2a,3,4-tetrahydro-1H-cyclopenta[cd]inden-7-yl-1,2,2-d3)oxy)benzonitrile] |  | EC50 (HIF-2α): 6 nM |
| CC1(F)CC2(O)c3c(ccc(Oc4cc(F)cc(C#N)c4)c31)C(F)(F)C2(F)F (stereo not shown) [Compound 12, 3-fluoro-5-((1,3,3,4,4-pentafluoro-2a-hydroxy-1-methyl-2,2a,3,4-tetrahydro-1H-cyclopenta[cd]inden-7-yl)oxy)benzonitrile] | 100 |  |
| CC1CC2(O)c3c(ccc(Oc4cc(F)cc(C#N)c4)c31)C(F)(F)C2(F)F (stereo not shown) [Compound 10, 3-fluoro-5-((3,3,4,4-tetrafluoro-2a-hydroxy-1-methyl-2,2a,3,4-tetrahydro-1H-cyclopenta[cd]inden-7-yl)oxy)benzonitrile] | 410 |  |
| C=C1CC2(O)c3c(ccc(Oc4cc(F)cc(C#N)c4)c31)C(F)(F)C2(F)F (stereo not shown) [Compound 1, 3-fluoro-5-((3,3,4,4-tetrafluoro-2a-hydroxy-1-methylene-2,2a,3,4-tetrahydro-1H-cyclopenta[cd]inden-7-yl)oxy)benzonitrile] | 13 |  |
| N#Cc1cc(F)cc(Oc2ccc3c4c2[C@@H](F)[C@H](F)[C@]4(O)C(F)(F)C3(F)F)c1 [Compound 24b, 3-fluoro-5-(((1R,2R,2aS)-1,2,3,3,4,4-hexafluoro-2a-hydroxy-2,2a,3,4-tetrahydro-1H-cyclopenta[cd]inden-7-yl)oxy)benzonitrile] | 11 |  |
| N#Cc1cc(F)cc(Oc2ccc3c4c2[C@@H](F)C[C@]4(O)C(F)(F)C3(F)F)c1 [Compound 5, 3-fluoro-5-(((1S,2aR)-1,3,3,4,4-pentafluoro-2a-hydroxy-2,2a,3,4-tetrahydro-1H-cyclopenta[cd]inden-7-yl)oxy)benzonitrile] | 6 |  |
